Measured values as given in patent US20080014256A1 (priority 2005, published 2008).
Where “and” joins values, the source holds several entries; their conditions need not be identical. Identical values can stand only once. Like-named read-outs stand apart in the source and are kept apart here. Marks after values point to notes of the source that are not given here.

What was measured:
[1] = tested on: cell monolayer; settings: pH 6
[2] = cynomolgus monkey, in vivo, 15 mg/kg
[3] = Pharmacokinetics of tigecycline after single oral (gavage) and intravenous dose in 0.9% saline

With Tigecycline the cell monolayer permeability [1] was 0.04 ×10⁻⁶ cm/s, the “AUC0-t or 0-∞” value [2] was 18267 and the “AUC0-t or 0-∞” value ([2]; po) was 163. For the same substance, the AUC0-4 ([3]; 5 mg/kg iv, animals 1-4 and Mean) was 20178 ng·h/mL, the Cmax ([3]; 15 mg/kg oral (gavage), 0.9% saline, animals 1-4 and Mean) was 131 ng/mL and 191 ng/mL and 178 ng/mL and the AUC0-t ([3]; 15 mg/kg oral (gavage), t = 2 hr (animals 1, 2, 4) or t = 1 hr (animal 3), individual and Mean) was 105^c ng · hr/mL.
